Test results from patent publication US11926631B2, “Method of treating cancer using amanitin derivatives” (Heidelberg Pharma Research GmbH, priority 2017, dated 2024).
pKd: −log10 of the molar value. *1 amine or outer side, *2 acyl side, *3 side chain or, on linkers, in order; H or OH if unused. Where a SMILES comes first, the peptide text is derived from it. Bridges are numbered along the chain shown (N, C = ends). [ ]: non-standard residue; d: D form. ξ: configuration not given here. Ile(4R-OH,5-OH) = C[C@H]([C@H](N)C(=O)O)[C@@H](O)CO; X2 = Nc1ccc2c(CC(N[*:1])C(=O)[*:2])c([*:3])[nH]c2c1; X1 = O=C([C@@H]1CC(O)CN1[*:1])[*:2]; ξC = NC(CS)C(=O)O

Assays:
[1] = BrdU cell proliferation assay (cytotoxicity) on HEK293 OATP1B3 cells; format: cell-based; conditions: human, 96 h incubation, BrdU assay (FIG. 4)
Experimental: (§1) BrdU Cell Proliferation Assay on HEK293 and HEK293 OATP1B3 cells
HEK293-OATP1B3 cell culture plates were coated with poly-D-lysine.
Coating with Poly-D-Lysine: • 5 mg poly D-lysine in 50 ml sterile water • 50 μl in each well of a 96 well plate • Incubation for 1 h at RT • Washing of wells twice with 200 μl sterile water • Drying for at least for 2 h (RT)
(§2) Black 96-well plates with clear bottom with 2.0×10^3 HEK293 and HEK293 OATP1B3 cells/well and 90 μl growth medium per well including 10% FCS and supplements were prepared. Controls: “Blank” was set up with 100 μl medium without cells, “Background” and “100%” were set up with cells in 100 μl medium.
(§3) Incubation for 24 h at 37° C. and 5% CO2.
(§4) Dilution Scheme of HDP 30.2528 and Alpha-Amanitin:
(§5) The stock solutions were diluted 1:1,000 (1:10 and 1:100 dilution) in medium: • 10 μl Amanitin derivative stock solution (1.0×10^−2 M)+90 μl PBS=100 μl 1.0×10^−3 M • 2 μl dilution+198 μl medium=200 μl 1×10^−5 M
Further Dilutions: • A: 200 μl 1.0×10^−5 M • B: 80 μl growth medium+20 μl solution A (1:5 dilution) • C: 80 μl growth medium+20 μl solution B (1:5 dilution) • D: 80 μl growth medium+20 μl solution C (1:5 dilution) • E: 80 μl growth medium+20 μl solution D (1:5 dilution) • F: 80 μl growth medium+20 μl solution E (1:5 dilution) • G: 80 μl growth medium+20 μl solution F (1:5 dilution) • H: 80 μl growth medium+20 μl solution G (1:5 dilution) […]

[2] = BrdU cell proliferation assay (cytotoxicity) on HEK293 cells; format: cell-based; conditions: human, 96 h incubation, BrdU assay (FIG. 4)
Experimental: as §1, §2, §3, §4, §5
Further Dilutions: • A: 200 μl 1.0×10^−5 M • B: 80 μl growth medium+20 μl solution A (1:5 dilution) • C: 80 μl growth medium+20 μl solution B (1:5 dilution) • D: 80 μl growth medium+20 μl solution C (1:5 dilution) • E: 80 μl growth medium+20 μl solution D (1:5 dilution) • F: 80 μl growth medium+20 μl solution E (1:5 dilution) • G: 80 μl growth medium+20 μl solution F (1:5 dilution) • H: 80 μl growth medium+20 μl solution G (1:5 dilution)
10 μl of each solution were added to well triplicates. […]

[3] = molecular target: DNA-dependent RNA polymerase II (Homo sapiens, UniProt P24928+P30876); conditions: background statement, no test in the patent; read-out: KD of the complex with RNA-polymerase II; cited from earlier work

Compound: CC[C@H](C)[C@@H]1NC(=O)CNC(=O)C2Cc3c([nH]c4cc(N)ccc34)SCC(NC(=O)CNC1=O)C(=O)N[C@@H](CC(N)=O)C(=O)N1CC(O)C[C@H]1C(=O)N[C@@H]([C@@H](C)[C@@H](O)CO)C(=O)N2 (stereo partly drawn) [HDP 30.2528, 6′-amino-amaninamide] (cyclo(GIG[ξC]N[X1][Ile(4R-OH,5-OH)][X2]); thioether 4-8)
- EC50 at 96 h [1]: 30 nM
- EC50 at 96 h [2]: 3000 nM

Compound: amanitin
- pKd [3]: 8.52
